Results: patent publication US11566007B2, “Ras inhibitors” (Revolution Medicines, Inc., priority 2019, dated 2023)
Where two headings read alike, the source gives them in different places.

Columns and labels:
[1] = biological target: NRAS Q61K (Homo sapiens (Human), UniProt P01111+P62937, Q61K); experiment: Ras-Raf (BRAF RBD) disruption / FRET / MOA assay, NRAS Q61K; type: biochemical
In short: (§1)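 Compounds were tested as a 10-point 3-fold dilution series from 30 μM final for their ability to drive ternary complex formation between nucleotide-loaded Ras and cyclophilin A, displacing the BRAF RBD. After 3 h at 25° C., anti-His Eu-W1024 (10 nM) and anti-GST allophycocyanin (50 nM) were added for 1.5 h. A TR-FRET ratio decrease versus DMSO gave IC50.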

[2] = biological target: KRAS Q61H (Homo sapiens (Human), UniProt P01116+P62937, Q61H); experiment: Ras-Raf (BRAF RBD) disruption / FRET / MOA assay, KRAS Q61H; type: biochemical; settings: class symbols
Chain of KRAS Q61H (P01116-2 other isoform, or with tags, fused parts or gaps Q61H): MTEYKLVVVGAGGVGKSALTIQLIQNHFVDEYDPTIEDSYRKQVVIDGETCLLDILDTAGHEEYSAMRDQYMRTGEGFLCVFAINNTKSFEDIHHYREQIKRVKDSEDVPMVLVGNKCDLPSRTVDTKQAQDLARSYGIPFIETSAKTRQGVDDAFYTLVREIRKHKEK
Chain of KRAS Q61H (P62937 whole entry): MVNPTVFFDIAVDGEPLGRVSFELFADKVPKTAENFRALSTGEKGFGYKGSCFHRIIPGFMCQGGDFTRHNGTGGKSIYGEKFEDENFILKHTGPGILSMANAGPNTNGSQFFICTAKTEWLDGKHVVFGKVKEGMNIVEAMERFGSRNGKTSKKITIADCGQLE
In short: as §1

[3] = biological target: KRAS G12D (Homo sapiens (Human), UniProt P01116+P62937, G12D); experiment: Ras-Raf (BRAF RBD) disruption / FRET / MOA assay, KRAS G12D; type: biochemical; settings: Ras-Raf disruption/FRET/MOA assay; class symbols; read-out: KRAS G12D FRET data IC50
Chain of KRAS G12D (P01116-2 other isoform, or with tags, fused parts or gaps G12D): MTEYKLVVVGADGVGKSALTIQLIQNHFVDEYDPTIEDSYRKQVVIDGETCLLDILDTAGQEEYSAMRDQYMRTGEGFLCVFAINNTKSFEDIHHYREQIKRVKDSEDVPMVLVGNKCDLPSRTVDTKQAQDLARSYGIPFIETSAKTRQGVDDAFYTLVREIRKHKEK
Chain of KRAS G12D (P62937 whole entry): as the sequence (P62937 whole entry) above
In short: (§2)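 TR-FRET read-out: a drop in ratio relative to DMSO wells marks disruption of the Ras:RAF complex, reported as IC50. Compounds (3-fold series, 10 points, top 30 μM final) incubated 3 h at 25° C before Eu-anti-His 10 nM and APC-anti-GST 50 nM, 1.5 h more.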

[4] = biological target: KRAS WT (Homo sapiens (Human), UniProt P01116+P62937); experiment: Ras-Raf (BRAF RBD) disruption / FRET / MOA assay, KRAS WT; type: biochemical; settings: read-out: IC50* KRAS WT FRET data
Chain of KRAS WT (P01116-2 other isoform, or with tags, fused parts or gaps): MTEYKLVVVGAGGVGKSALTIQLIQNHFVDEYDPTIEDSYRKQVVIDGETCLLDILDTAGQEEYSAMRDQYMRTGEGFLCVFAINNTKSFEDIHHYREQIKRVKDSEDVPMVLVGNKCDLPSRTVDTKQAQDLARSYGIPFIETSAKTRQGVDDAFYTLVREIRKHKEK
Chain of KRAS WT (P62937 whole entry): as the sequence (P62937 whole entry) above
In short: as §2

[5] = test system: NCI-H358 (K-Ras G12C); experiment: CellTiter-Glo cell viability assay, NCI-H358; type: cell-based, human; settings: Homo sapiens, NCI-H358, 120 h, class symbols
In short: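 Compounds were dispensed directly onto K-Ras mutant cells and incubated until day 5, then plates were equilibrated to room temperature for about 30 minutes before CellTiter-Glo luminescence. Signals were normalized as (sample/average DMSO)*100 and fitted by four-parameter logistic fit.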

[6] = biological target: NRAS WT (Homo sapiens (Human), UniProt P01111+P62937); experiment: Ras-Raf (BRAF RBD) disruption / FRET / MOA assay, NRAS WT; type: biochemical
Chain of NRAS WT (P01111 whole entry): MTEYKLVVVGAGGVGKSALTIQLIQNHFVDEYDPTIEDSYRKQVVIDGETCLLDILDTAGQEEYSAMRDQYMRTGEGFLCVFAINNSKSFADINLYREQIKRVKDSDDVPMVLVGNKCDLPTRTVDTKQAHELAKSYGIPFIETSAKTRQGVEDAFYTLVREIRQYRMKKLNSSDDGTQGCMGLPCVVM
Chain of NRAS WT (P62937 whole entry): as the sequence (P62937 whole entry) above
In short: as §1

[7] = biological target: NRAS G12C (Homo sapiens (Human), UniProt P01111+P62937, G12C); experiment: Ras-Raf (BRAF RBD) disruption / FRET / MOA assay, NRAS G12C; type: biochemical
Chain of NRAS G12C (P01111 whole entry G12C): as the sequence (P01111 whole entry) above, with G12C counted along it
Chain of NRAS G12C (P62937 whole entry): as the sequence (P62937 whole entry) above
In short: as §2

[8] = biological target: NRAS Q61R (Homo sapiens (Human), UniProt P01111+P62937, Q61R); experiment: Ras-Raf (BRAF RBD) disruption / FRET / MOA assay, NRAS Q61R; type: biochemical
Chain of NRAS Q61R (P01111 whole entry Q61R): as the sequence (P01111 whole entry) above, with Q61R counted along it
Chain of NRAS Q61R (P62937 whole entry): as the sequence (P62937 whole entry) above
In short: as §1

[9] = biological target: KRAS G12V (Homo sapiens (Human), UniProt P01116+P62937, G12V); experiment: Ras-Raf (BRAF RBD) disruption / FRET / MOA assay, KRAS G12V; type: biochemical; settings: read-out: IC50* KRAS G12V FRET data
Chain of KRAS G12V (P01116-2 other isoform, or with tags, fused parts or gaps G12V): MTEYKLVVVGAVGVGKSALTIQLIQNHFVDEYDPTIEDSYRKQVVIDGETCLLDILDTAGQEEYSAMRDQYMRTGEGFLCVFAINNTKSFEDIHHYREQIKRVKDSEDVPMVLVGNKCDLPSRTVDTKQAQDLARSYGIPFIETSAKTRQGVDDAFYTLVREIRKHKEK
Chain of KRAS G12V (P62937 whole entry): as the sequence (P62937 whole entry) above
In short: as §2

[10] = biological target: K-Ras G12C (Homo sapiens (Human), UniProt P01116+P62937, G12C); experiment: Ras-Raf (BRAF RBD) disruption / FRET / MOA assay, KRAS G12C; type: biochemical; settings: KRAS G12C, Ras-Raf disruption/FRET/MOA assay
Chain of K-Ras G12C (P01116-2 other isoform, or with tags, fused parts or gaps G12C): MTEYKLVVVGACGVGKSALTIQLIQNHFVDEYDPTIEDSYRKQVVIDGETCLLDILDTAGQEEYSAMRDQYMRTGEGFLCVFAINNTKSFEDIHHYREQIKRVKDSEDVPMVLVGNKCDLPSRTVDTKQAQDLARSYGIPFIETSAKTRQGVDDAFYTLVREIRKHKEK
Chain of K-Ras G12C (P62937 whole entry): as the sequence (P62937 whole entry) above
In short: as §2

[11] = biological target: KRAS G12S (Homo sapiens (Human), UniProt P01116+P62937, G12S); experiment: Ras-Raf (BRAF RBD) disruption / FRET / MOA assay, KRAS G12S; type: biochemical; settings: Ras-Raf disruption/FRET/MOA assay; class symbols; read-out: KRAS G12S FRET data IC50
Chain of KRAS G12S (P01116-2 other isoform, or with tags, fused parts or gaps G12S): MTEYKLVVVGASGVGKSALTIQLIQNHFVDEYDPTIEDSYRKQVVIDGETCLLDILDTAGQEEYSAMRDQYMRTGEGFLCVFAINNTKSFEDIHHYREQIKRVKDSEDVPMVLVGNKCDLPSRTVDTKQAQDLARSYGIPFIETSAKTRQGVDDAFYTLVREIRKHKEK
Chain of KRAS G12S (P62937 whole entry): as the sequence (P62937 whole entry) above
In short: as §2

[12] = NRAS Q61K, Ras-Raf disruption/FRET/MOA assay, read-out: IC50* NRAS Q61K FRET data
[13] = Ras-Raf disruption/FRET/MOA assay, read-out: KRAS Q61H FRET data IC50
[14] = NCI-H358, 5-day treatment, read-out: Additional H358 Cell Viability assay data (K-Ras G12C, IC50)
[15] = read-out: IC50* NRAS WT FRET data
[16] = read-out: IC50* NRAS G12C FRET data
[17] = NRAS Q61R, Ras-Raf disruption/FRET/MOA assay, read-out: IC50* NRAS Q61R FRET data
[18] = read-out: IC50* KRAS G12C FRET data

Chain of NRAS Q61K (P01111 whole entry Q61K): as the sequence (P01111 whole entry) above, with Q61K counted along it
Chain of NRAS Q61K (P62937 whole entry): as the sequence (P62937 whole entry) above

| SMILES | IC50 [1, 12] [µM] | IC50 [2, 13] [µM] | IC50 [3] [µM] | IC50 [4] [µM] | IC50 [5, 14] [µM] | IC50 [6, 15] [µM] | IC50 [7, 16] [µM] | IC50 [8, 17] [µM] | IC50 [9] [µM] | IC50 [10, 18] [µM] | IC50 [11] [µM] | IC50 [1] [µM] | IC50 ([2]; KRAS Q61H FRET data IC50, Ras-Raf disruption/FRET/MOA assay) [µM] | IC50 ([5]; read-out: Additional H358 Cell Viability assay data (K-Ras G12C, IC50, uM), NCI-H358, 5-day treatment) [µM] | IC50 ([6]; IC50* NRAS WT FRET data) [µM] | IC50 ([7]; IC50* NRAS G12C FRET data) [µM] | IC50 [8] [µM] | IC50 ([10]; IC50* KRAS G12C FRET data) [µM] |
| --- | --- | --- | --- | --- | --- | --- | --- | --- | --- | --- | --- | --- | --- | --- | --- | --- | --- | --- |
| C=CC(=O)N1CC[C@H](C(=O)N2CCCCC[C@H]2C(=O)N[C@H]2Cc3cccc(c3)-c3ccc4c(c3)c(c(-c3cccnc3[C@H](C)OC)n4CC)CC(C)(C)COC(=O)[C@@H]3CCCN(N3)C2=O)C1 (atropisomer, axis not shown) [Example A496] | 1 to 10 | 1 to 10 | > 10 | > 10 | 0.1 to 1 | 1 to 10 | 1 to 10 | 1 to 10 | > 10 | 1 to 10 | > 10 |  |  |  |  |  |  |  |
| CCn1c(-c2cccnc2[C@H](C)OC)c2c3cc(ccc31)-c1cccc(c1)C[C@H](NC(=O)[C@H](C(C)C)N1CC[C@]3(CCN(C(=O)C#CC(C)(C)N(C)C)C3)C1=O)C(=O)N1CCC[C@H](N1)C(=O)OCC(C)(C)C2 (atropisomer, axis not shown) [Example A534, (2S)-2-((S)-7-(4-(dimethylamino)-4-methylpent-2-ynoyl)-1-oxo-2,7-diazaspiro[4.4]nonan-2-yl)-N-((6^3S,4S)-1^1-ethyl-1^2-(2-((S)-1-methoxyethyl)pyridin-3-yl)-10,10-dimethyl-5,7-dioxo-6^1,6^2,6^3,6^4,6^5,6^6-hexahydro-1^1H-8-oxa-1(5,3)-indola-6(1,3)-pyridazina-2(1,3)-benzenacycloundecaphane-4-yl)-3-methylbutanamide] | 1 to 10 | 0.1 to 1 | 1 to 10 | 1 to 10 | < 0.01 | 1 to 10 | < 0.01 | 1 to 10 | 1 to 10 | < 0.01 | 1 to 10 |  |  |  |  |  |  |  |
| C=CC(=O)N1CC[C@H]2[C@@H]1CN2C(=O)N(C)[C@H](C(=O)N[C@H]1Cc2nc(cs2)-c2ccc3c(c2)c(c(-c2cccnc2[C@H](C)OC)n3CC)CC(C)(C)COC(=O)[C@@H]2CCCN(N2)C1=O)C(C)C (atropisomer, axis not shown) [Example A547] | 0.1 to 1 | 0.1 to 1 | 1 to 10 | 0.1 to 1 | 0.1 to 1 | 0.1 to 1 | 0.1 to 1 | 1 to 10 | 1 to 10 | 0.1 to 1 | 1 to 10 |  |  |  |  |  |  |  |
| CCn1c(-c2cccnc2[C@H](C)OC)c2c3cc(ccc31)-c1cccc(c1)C[C@H](NC(=O)[C@H](C(C)C)N1CC[C@@]3(CCN(C(=O)C#C[C@@H]4COCCN4C)C3)C1=O)C(=O)N1CCC[C@H](N1)C(=O)OCC(C)(C)C2 (atropisomer, axis not shown) [Example A549] |  |  | > 10 | 1 to 10 |  |  |  |  | 1 to 10 |  | 1 to 10 | 1 to 10 | 0.1 to 1 | < 0.01 | 1 to 10 | 0.01 to 0.1 | 1 to 10 | < 0.01 |
| CCn1c(-c2cccnc2[C@H](C)OC)c2c3cc(ccc31)-c1cccc(c1)C[C@H](NC(=O)[C@H](C(C)C)N1CC[C@]3(CCN(C(=O)C#C[C@@]4(N(C)C)CCOC4)C3)C1=O)C(=O)N1CCC[C@H](N1)C(=O)OCC(C)(C)C2 (atropisomer, axis not shown) [Example A560] | 1 to 10 | 0.1 to 1 | 1 to 10 | 1 to 10 | < 0.01 | 1 to 10 | 0.01 to 0.1 | 1 to 10 | 1 to 10 | 0.01 to 0.1 | 0.1 to 1 |  |  |  |  |  |  |  |
| C=CC(=O)N1C[C@@H]2CN(C(=O)N(C)[C@H](C(=O)N[C@H]3Cc4nc(cs4)-c4ccc5c(c4)c(c(-c4cccnc4[C@H](C)OC)n5CC)CC(C)(C)COC(=O)[C@@H]4CCCN(N4)C3=O)C(C)C)[C@@H]2C1 (atropisomer, axis not shown) [Example A561] | 0.1 to 1 | 0.1 to 1 | 1 to 10 | 1 to 10 | 0.1 to 1 | 1 to 10 | 0.1 to 1 | 1 to 10 | 1 to 10 | 0.1 to 1 | 1 to 10 |  |  |  |  |  |  |  |
